{
  "source": "patent US9555016B2",
  "about": "“Lytic agents for use in treating intravascular clots” (priority 2013, dated 2017)",
  "key": {"[1]": {"tested_on": "chronic clots, formed of collagen", "test": "Gravimetric testing of lytic resistance of chronic collagen clots", "description": "Gravimetric testing to determine lytic resistance of the clots was carried out as follows. Briefly, an incubation shaker was heated to about 37° C. Clots were allowed to rest at a temperature of about 4° C. for 24 hours prior to testing. About 200-300 mg of clot samples were weighed out, with 1 sample placed per well in a 24 well plate. Weights were recorded. About 1 ml of each solution was placed in each well. The plate was then placed into the incubation shaker and shaken at 160 rpm for 1 hour and 3 hours. The weight was recorded at each time point. Lytic resistance was defined as follows, as the percent clot remaining: [formula] Chronic clots, formed of collagen, were formed and treated with guanidine hydrochloride. Chronic collagen clots were formed by reverse dialysis, as generally disclosed in Knight, et al., “In vitro formation by reverse dialysis of collagen gels containing highly oriented arrays of fibrils,” J. Biomed. Mater. Res., 41, 185-191 (1998). Briefly, about 1.5 grams collagen was combined with about 45 ml distilled water and 5 ml of 0.5 M acetic acid. A dialysis solution was prepared with 2% polyethylene glycol (PEG) in about 10 mM of a Tris base buffer (2000 ml distilled water added to 40 grams PEG and 2.422 grams Tris Base (also known as Trimethylol Aminomethane, Tris(hydroxymethyl)aminomethane)). […]"}, "[2]": {"tested_on": "chronic clots, formed of collagen", "test": "Mechanical compression testing (Texture Analyzer) of chronic collagen clots", "description": "The clots were subjected to mechanical testing to determine the effects of the guanidine chloride on the hardness of the clot, as well as its elasticity and lytic resistance. Briefly, a Texture Analyzer manufactured by Texture Technologies Corporation, running Exponent Software from Texture Technologies Corporation was used. […] Clot samples having a thickness of about 1 mm were prepared and placed underneath the probe, until the probe was about 3 mm above the sample surface. The Texture Analyzer subjected the sample to a 0.5 mm compression test, and then a 1 mm compression test. Chronic clots, formed of collagen, were formed and treated with guanidine hydrochloride. Chronic collagen clots were formed by reverse dialysis, as generally disclosed in Knight, et al., “In vitro formation by reverse dialysis of collagen gels containing highly oriented arrays of fibrils,” J. Biomed. Mater. Res., 41, 185-191 (1998). Briefly, about 1.5 grams collagen was combined with about 45 ml distilled water and 5 ml of 0.5 M acetic acid. A dialysis solution was prepared with 2% polyethylene glycol (PEG) in about 10 mM of a Tris base buffer (2000 ml distilled water added to 40 grams PEG and 2.422 grams Tris Base (also known as Trimethylol Aminomethane, Tris(hydroxymethyl)aminomethane)). […] Fibril formation was allowed to proceed over a period of about 48 hours, at which time the collagen was collected and stored in about 10 mM Tris-base solution at a pH of about 7.4 and stored at about 4° C. Additional chronic clots were prepared by combining collagen gels produced as above, and then adding genipin thereto (about 5 mM genipin solution in about 0.9% sodium chloride). Chronic clots thus formed were subjected to the hardness and gravimetric tests described above in Example 1."}, "[3]": {"tested_on": "acute clots, formed from ovine blood", "test": "Gravimetric testing of lytic resistance of acute clots", "description": "(§1) Acute clots, formed from ovine blood, were formed and treated with guanidine hydrochloride. Clots were formed following the general procedures set forth in Luo et al., “Creation Of Fibrinogen-Enhanced Experimental Blood Clots To Evaluate Mechanical Thrombectomy Devices For Treatment Of Acute Stroke: An In Vitro Study,” J. Vase. Interv. Radiol. 2012 August; 23(8): 1077-83. Briefly, ovine blood was contacted with about […] thrombin and about 25 mM calcium chloride. Additional acute clots were formed where about 40 mg/ml fibrinongen was first added to the ovine blood.\nGravimetric testing to determine lytic resistance of the clots was carried out as follows. Briefly, an incubation shaker was heated to about 37° C. Clots were allowed to rest at a temperature of about 4° C. for 24 hours prior to testing. About 200-300 mg of clot samples were weighed out, with 1 sample placed per well in a 24 well plate. Weights were recorded.\nGuanidine hydrochloride solutions were prepared as follows:\n1. 12 M Guanidine hydrochloride (GH): 22.93 g GH+20 ml 0.9% sodium chloride\n2. 6 M GH: 10 ml 12 M GH+10 ml 0.9% sodium chloride\n3. 3 M GH: 10 ml 6 M GH+10 ml 0.9% sodium chloride\n4. 1 M GH: 10 ml 3 M GH+20 ml 0.9% sodium chloride\n6. 0.5 M GH: 10 ml 1 M GH+10 ml 0.9% sodium chloride\nAbout 1 ml of each solution was placed in each well. […] The weight was recorded at each time point. […]"}, "[4]": {"tested_on": "acute clots, formed from ovine blood", "test": "Mechanical compression testing (Texture Analyzer) of acute clots", "settings": "acute blood clot, after 1 hour of treatment", "description": "as §1\nGuanidine chloride at concentrations of 6 M and 12 M in 0.9% sodium chloride were added to the clots, with untreated clots and clots treated with 0.2 mg/ml tPA used as controls.\nThe clots were subjected to mechanical testing to determine the effects of the guanidine chloride on the hardness of the clot, as well as its elasticity and lytic resistance. Briefly, a Texture Analyzer manufactured by Texture Technologies Corporation, running Exponent Software from Texture Technologies Corporation was used. […] Clot samples having a thickness of about 1 mm were prepared and placed underneath the probe, until the probe was about 3 mm above the sample surface. The Texture Analyzer subjected the sample to a 0.5 mm compression test, and then a 1 mm compression test. […]"}, "[5]": {"settings": "chronic clots prepared without genipin"}},
  "note": "Counter-ions that a name gives are not always drawn.",
  "data": [
    {"smiles": "N=C(N)N", "note": "[guanidine hydrochloride]", "values": [
      {"measurement": "lytic resistance versus molar concentration", "setting": "[1]; chronic clots, increasing molar concentration of guanidine hydrochloride", "result": "lytic resistance decreased upon increase in the molar concentration"},
      {"measurement": "dissolution of clot (summary)", "setting": "[1]; chronic collagen-based clots, after 1 hour, even at low concentrations", "result": "dissolve most of the collagen clot models"},
      {"measurement": "elasticity after treatment", "setting": "[2]; [5]", "result": "dissolved/broken down to a point where elasticity could not be measured"},
      {"measurement": "hardness after treatment", "setting": "[2]; [5]", "result": "dissolved/broken down to a point where hardness could not be measured"},
      {"measurement": "effect on hardness (summary, FIG. 3)", "setting": "[2]; chronic collagen clots", "result": "significant decrease in hardness"},
      {"measurement": "clot weight (summary of gravimetric testing)", "setting": "[3]; acute blood-based clot models, increased concentrations", "result": "did not show a decrease in weight"},
      {"measurement": "lytic resistance versus molar concentration", "setting": "[3]; acute clots, increasing molar concentration of guanidine hydrochloride", "result": "lytic resistance decreased upon increase in the molar concentration"},
      {"measurement": "effect on hardness (summary, FIG. 2)", "setting": "[4]", "result": "significant effect on the hardness"}
    ]}
  ]
}
